Assay results published in PubChem BioAssay AID1963841 (Molecular Pharmacology Branch, DTP, NCI, 2024).

Tested on: 439559-082-T-J2-PDC spheroid viability
Assay: Anticancer human tumor 439559-082-T-J2-PDC patient-derived colon adenocarcinoma cell line growth inhibition [POLQ]
Conditions: spheroids with HUVEC and MSC; for IC50: curve of first compound; for viability, T/C: stronger effect = lower value
How it was run: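 Three-cell-type spheroids modelling solid tumor plus stroma served as the readout system; POL inhibitors were tested individually and in combination, concentration ranges set by clinical Cmax where known.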

[1] = second compound 0.0316 µM, first compound 0.0316 µM
[2] = second compound 0.0316 µM, first compound 0.1 µM
[3] = second compound 0.0316 µM, first compound 0.316 µM
[4] = second compound 0.0316 µM, first compound 1 µM
[5] = second compound 0.0316 µM, first compound 3.16 µM
[6] = second compound 0.0316 µM, first compound 10 µM
[7] = second compound 0.1 µM, first compound 0.0316 µM
[8] = second compound 0.1 µM, first compound 0.1 µM
[9] = second compound 0.1 µM, first compound 0.316 µM
[10] = second compound 0.1 µM, first compound 1 µM
[11] = second compound 0.1 µM, first compound 3.16 µM
[12] = second compound 0.1 µM, first compound 10 µM
[13] = second compound 0.316 µM, first compound 0.0316 µM
[14] = second compound 0.316 µM, first compound 0.1 µM
[15] = second compound 0.316 µM, first compound 0.316 µM
[16] = second compound 0.316 µM, first compound 1 µM
[17] = second compound 0.316 µM, first compound 3.16 µM
[18] = second compound 0.316 µM, first compound 10 µM
[19] = second compound 1 µM, first compound 0.0316 µM
[20] = second compound 1 µM, first compound 0.1 µM
[21] = second compound 1 µM, first compound 0.316 µM
[22] = second compound 1 µM, first compound 1 µM
[23] = second compound 1 µM, first compound 3.16 µM
[24] = second compound 1 µM, first compound 10 µM
[25] = second compound 3.16 µM, first compound 0.0316 µM
[26] = second compound 3.16 µM, first compound 0.1 µM
[27] = second compound 3.16 µM, first compound 0.316 µM
[28] = second compound 3.16 µM, first compound 1 µM
[29] = second compound 3.16 µM, first compound 3.16 µM
[30] = second compound 3.16 µM, first compound 10 µM
[31] = second compound 10 µM, first compound 0.0316 µM
[32] = second compound 10 µM, first compound 0.1 µM
[33] = second compound 10 µM, first compound 0.316 µM
[34] = second compound 10 µM, first compound 1 µM
[35] = second compound 10 µM, first compound 3.16 µM
[36] = second compound 10 µM, first compound 10 µM
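Further: spheroids exposed to compounds for seven days before readout.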
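Wherever viability, T/C is given: 100% = DMSO vehicle control viability.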

C#Cc1c(F)ccc2cc(O)cc(-c3ncc4c(N5CC6CCC(C5)N6)nc(OCC56CCCN5CC(F)C6)nc4c3F)c12 (stereo not drawn) + COC1C(OC(N)=O)C(O)C(Oc2ccc3c(O)c(NC(=O)c4ccc(O)c(CC=C(C)C)c4)c(=O)oc3c2C)OC1(C)C
IC50 (second compound 0.0316 µM): > 10 µM | IC50 (second compound 0.1 µM): > 10 µM | IC50 (second compound 0.316 µM): > 10 µM | IC50 (second compound 1 µM): > 10 µM | IC50 (second compound 3.16 µM): > 10 µM | IC50 (second compound 10 µM): > 10 µM | viability, T/C [1]: 87.5% | viability, T/C [2]: 90.6% | viability, T/C [3]: 73.8% | viability, T/C [4]: 69.2% | viability, T/C [5]: 58.4% | viability, T/C [6]: 50.3% | viability, T/C [7]: 96% | viability, T/C [8]: 89.1% | viability, T/C [9]: 80% | viability, T/C [10]: 68.9% | viability, T/C [11]: 59.7% | viability, T/C [12]: 52.1% | viability, T/C [13]: 101% | viability, T/C [14]: 84.8% | viability, T/C [15]: 75.8% | viability, T/C [16]: 67.7% | viability, T/C [17]: 61.1% | viability, T/C [18]: 51.1% | viability, T/C [19]: 96.5% | viability, T/C [20]: 88% | viability, T/C [21]: 75% | viability, T/C [22]: 63.9% | viability, T/C [23]: 57.4% | viability, T/C [24]: 49.8% | viability, T/C [25]: 97.2% | viability, T/C [26]: 93.9% | viability, T/C [27]: 70.4% | viability, T/C [28]: 63.9% | viability, T/C [29]: 60.6% | viability, T/C [30]: 49% | viability, T/C [31]: 103% | viability, T/C [32]: 92.1% | viability, T/C [33]: 73.5% | viability, T/C [34]: 67.2% | viability, T/C [35]: 64.4% | viability, T/C [36]: 49.6%

C=CC(=O)N1CCN(c2nc(=O)n(-c3c(C)ccnc3C(C)C)c3nc(-c4c(O)cccc4F)c(F)cc23)C(C)C1 (stereo not drawn) + COC1C(OC(N)=O)C(O)C(Oc2ccc3c(O)c(NC(=O)c4ccc(O)c(CC=C(C)C)c4)c(=O)oc3c2C)OC1(C)C
IC50 (second compound 0.0316 µM): > 10 µM | IC50 (second compound 0.1 µM): > 10 µM | IC50 (second compound 0.316 µM): > 10 µM | IC50 (second compound 1 µM): > 10 µM | IC50 (second compound 3.16 µM): > 10 µM | IC50 (second compound 10 µM): > 10 µM | viability, T/C [1]: 95.8% | viability, T/C [2]: 93.5% | viability, T/C [3]: 104% | viability, T/C [4]: 101% | viability, T/C [5]: 104% | viability, T/C [6]: 91.4% | viability, T/C [7]: 96.7% | viability, T/C [8]: 105% | viability, T/C [9]: 98% | viability, T/C [10]: 101% | viability, T/C [11]: 106% | viability, T/C [12]: 96.9% | viability, T/C [13]: 103% | viability, T/C [14]: 96.3% | viability, T/C [15]: 99.7% | viability, T/C [16]: 101% | viability, T/C [17]: 107% | viability, T/C [18]: 98.6% | viability, T/C [19]: 106% | viability, T/C [20]: 105% | viability, T/C [21]: 97.6% | viability, T/C [22]: 101% | viability, T/C [23]: 109% | viability, T/C [24]: 98.8% | viability, T/C [25]: 98.1% | viability, T/C [26]: 101% | viability, T/C [27]: 101% | viability, T/C [28]: 104% | viability, T/C [29]: 98.5% | viability, T/C [30]: 102% | viability, T/C [31]: 103% | viability, T/C [32]: 92.8% | viability, T/C [33]: 98.8% | viability, T/C [34]: 109% | viability, T/C [35]: 106% | viability, T/C [36]: 98.8%

CCc1cc2c(N3CCc4c(cc(Cn5ccnc5)cc4-c4cn(C)nc4C(F)(F)F)C3=O)ccnc2c(OC)n1 + COC1C(OC(N)=O)C(O)C(Oc2ccc3c(O)c(NC(=O)c4ccc(O)c(CC=C(C)C)c4)c(=O)oc3c2C)OC1(C)C
IC50 (second compound 0.0316 µM): > 10 µM | IC50 (second compound 0.1 µM): > 10 µM | IC50 (second compound 0.316 µM): > 10 µM | IC50 (second compound 1 µM): > 10 µM | IC50 (second compound 3.16 µM): > 10 µM | IC50 (second compound 10 µM): > 10 µM | viability, T/C [1]: 95.2% | viability, T/C [2]: 104% | viability, T/C [3]: 97.5% | viability, T/C [4]: 95.2% | viability, T/C [5]: 91.6% | viability, T/C [6]: 95.3% | viability, T/C [7]: 100% | viability, T/C [8]: 103% | viability, T/C [9]: 96.1% | viability, T/C [10]: 90.7% | viability, T/C [11]: 99.2% | viability, T/C [12]: 95.2% | viability, T/C [13]: 107% | viability, T/C [14]: 107% | viability, T/C [15]: 101% | viability, T/C [16]: 109% | viability, T/C [17]: 91.5% | viability, T/C [18]: 90.3% | viability, T/C [19]: 110% | viability, T/C [20]: 106% | viability, T/C [21]: 99.4% | viability, T/C [22]: 92.9% | viability, T/C [23]: 93.1% | viability, T/C [24]: 87.6% | viability, T/C [25]: 99.6% | viability, T/C [26]: 109% | viability, T/C [27]: 99.4% | viability, T/C [28]: 92% | viability, T/C [29]: 93% | viability, T/C [30]: 89.6% | viability, T/C [31]: 106% | viability, T/C [32]: 93.7% | viability, T/C [33]: 99.1% | viability, T/C [34]: 101% | viability, T/C [35]: 102% | viability, T/C [36]: 94.5%

COc1cc2cc(C(=O)CCC(=O)O)sc2cc1OC + COC1C(OC(N)=O)C(O)C(Oc2ccc3c(O)c(NC(=O)c4ccc(O)c(CC=C(C)C)c4)c(=O)oc3c2C)OC1(C)C
IC50 (second compound 0.0316 µM): > 10 µM | IC50 (second compound 0.1 µM): > 10 µM | IC50 (second compound 0.316 µM): > 10 µM | IC50 (second compound 1 µM): > 10 µM | IC50 (second compound 3.16 µM): > 10 µM | IC50 (second compound 10 µM): > 10 µM | viability, T/C [1]: 94% | viability, T/C [2]: 96.2% | viability, T/C [3]: 90.1% | viability, T/C [4]: 92.3% | viability, T/C [5]: 100% | viability, T/C [6]: 95.2% | viability, T/C [7]: 94.1% | viability, T/C [8]: 103% | viability, T/C [9]: 103% | viability, T/C [10]: 95.7% | viability, T/C [11]: 111% | viability, T/C [12]: 98.1% | viability, T/C [13]: 98.6% | viability, T/C [14]: 99.1% | viability, T/C [15]: 96.2% | viability, T/C [16]: 97.8% | viability, T/C [17]: 97.1% | viability, T/C [18]: 93.2% | viability, T/C [19]: 98.1% | viability, T/C [20]: 99.3% | viability, T/C [21]: 98.8% | viability, T/C [22]: 94.7% | viability, T/C [23]: 96.1% | viability, T/C [24]: 91.3% | viability, T/C [25]: 99.1% | viability, T/C [26]: 99.5% | viability, T/C [27]: 84.7% | viability, T/C [28]: 95.6% | viability, T/C [29]: 98% | viability, T/C [30]: 89.5% | viability, T/C [31]: 99% | viability, T/C [32]: 96.9% | viability, T/C [33]: 97.9% | viability, T/C [34]: 95.9% | viability, T/C [35]: 111% | viability, T/C [36]: 89.6%
